Like-named read-outs stand apart in the source and are kept apart here.
What was measured:
Type in all cases: cell-based, human
ML-2 = assay: MI-219 apoptosis induction in AML cell lines; settings: ML-2 AML cell line, p53 wt
Protocol: (§1) Next—the ability of MI-219 to induce apoptosis in 19 AML-derived cell lines was assessed.

Kasumi-3 = assay: MI-219 apoptosis induction in AML cell lines; settings: Kasumi-3 AML cell line, p53 (exon5-9) mut
Protocol: as §1

OCI-AML-3 = assay: MI-219 apoptosis induction in AML cell lines; settings: OCI-AML-3 AML cell line, p53 wt
Protocol: as §1

SKM-1 = assay: MI-219 apoptosis induction in AML cell lines; settings: SKM-1 AML cell line, p53 (exon5-9) mut
Protocol: as §1

SIG-M5 = assay: MI-219 apoptosis induction in AML cell lines; settings: SIG-M5 AML cell line, p53 wt
Protocol: as §1

MONO-MAC-6 = assay: MI-219 apoptosis induction in AML cell lines; settings: MONO-MAC-6 AML cell line, p53 (exon5-9) mut
Protocol: as §1

AP-1060 = assay: MI-219 apoptosis induction in AML cell lines; settings: AP-1060 AML cell line, p53 wt
Protocol: as §1

GF-D8 = assay: MI-219 apoptosis induction in AML cell lines; settings: GF-D8 AML cell line, p53 (exon5-9) mut
Protocol: as §1

MOLM-16 = assay: MI-219 apoptosis induction in AML cell lines; settings: MOLM-16 AML cell line, p53 (exon5-9) mut
Protocol: as §1

MOLM-13 = assay: MI-219 apoptosis induction in AML cell lines; settings: MOLM-13 AML cell line, p53 wt
Protocol: as §1

OCI-AML-5 = assay: MI-219 apoptosis induction in AML cell lines; settings: OCI-AML-5 AML cell line, p53 wt
Protocol: as §1

OCI-M2 = assay: MI-219 apoptosis induction in AML cell lines; settings: OCI-M2 AML cell line, p53 (exon5-9) mut
Protocol: as §1

MUTZ-2 = assay: MI-219 apoptosis induction in AML cell lines; settings: MUTZ-2 AML cell line, p53 wt
Protocol: as §1

KG-1 = assay: MI-219 apoptosis induction in AML cell lines; settings: KG-1 AML cell line, p53 (exon5-9) mut
Protocol: as §1

HL60 = assay: MI-219 apoptosis induction in AML cell lines; settings: HL60 AML cell line, p53 deleted
Protocol: as §1

Kasumi-1 = assay: MI-219 apoptosis induction in AML cell lines; settings: Kasumi-1 AML cell line, p53 (exon5-9) mut
Protocol: as §1

AML-193 = assay: MI-219 apoptosis induction in AML cell lines; settings: AML-193 AML cell line, p53 (exon5-9) mut
Protocol: as §1

ME-1 = assay: MI-219 apoptosis induction in AML cell lines; settings: ME-1 AML cell line, p53 (exon5-9) mut
Protocol: as §1

OCI-AML-2 = assay: MI-219 apoptosis induction in AML cell lines; settings: OCI-AML-2 AML cell line, p53 wt
Protocol: as §1

[1] = test system: p53 expression in resistant AML blasts with absent p53 expression; assay: Ex vivo AML blasts epigenetic and MDM2 inhibitor apoptosis assay; settings: alone or in combination, followed by MI-219; four AML cases with absent or very low p53 mRNA
Protocol: Blasts enriched to >90% purity using methods detailed above were incubated with either DMSO or 0.5 μM 5-azacytidine (A2385, Sigma-Aldrich, Saint Louis, Mo.) for 48 hours (with 5-azacytidine replenished every 24 hours). During the last 12 hours of incubation, blasts were further aliquoted and treated with either 0.3 μM Trichostatin A (#9950, Cell Signaling Technology, Danvers, Mass.) or DMSO. At the end of the 48 hour incubation, each of the four differentially treated subgroups of blasts were treated with MI-219 at final concentrations of 0, 2.5, 5 and 10 μM for 40 hours, followed by annexin-V/PI FACS-based analysis of apoptosis. Aliquots of blasts in parallel were cultured in a 48-well plate at 10^6 cells per well in 1 ml of medium and treated with 10 μM MI-219 or solvent for 8 hours. Blasts were harvested, lysed and protein prepared for immunoblotting as described.
Attempting to obtain evidence for epigenetic p.53 gene silencing in AML with absent p53 mRNA expression, four AML cases were selected based on the availability of cryopreserved cells with absent or very low p53 mRNA for further analysis and treated purified blasts with trichostatin A and azacytidine (alone or in combination) followed by treatment with MI-219. Readouts for these experiments was the fraction of blasts undergoing apoptosis and posttreatment p53 protein levels. […]

p53 = p53 immunoblot of AML cell lines after MI-219 treatment
AML blasts = assay: Ex vivo AML blasts MDM2 inhibitor apoptosis assay (annexin-V/PI FACS)
Protocol: Blasts enriched to >90% purity using methods detailed above were incubated in serum-supplemented RPMI medium at 2.5×10^5 cells in 100 μl final volume in the presence of various concentrations of the MDM2 inhibitors MI-219 and MI-63 (range 0.625-20 μM) for 40 hours. Apoptosis and necrosis was measured for each treated blast aliquot using annexin-V/PI FACS-based readouts and values subsequently normalized to spontaneous death rates in untreated parallel cultures according to the formula (% alive=% mean alive treated samples/% mean alive paired non-treated samples).
To evaluate the efficacy of MDM2 inhibitor-mediated apoptotic cell kill in AML blasts ex vivo, blasts from 109 AML specimens (97 with wild type p53 and 12 with mutant p53 by exon 5-9 exon sequence analysis) were purified to >90% purity and cell aliquots were incubated for 40 hours with escalating concentrations of the MDM2 inhibitors MI-219 (N=109) and MI-63 (N=60). The apoptotic cell fraction in treated samples was subsequently quantitated through annexin V-PI-based FACS analysis and normalized to measurements in paired untreated cells.

[2] = ex vivo, blasts from 109 patients

COc1ccc(C2=N[C@@H](c3ccc(Cl)cc3)[C@@H](c3ccc(Cl)cc3)N2C(=O)N2CCNC(=O)C2)c(OC(C)C)c1 [Nutlin, reference compound]
IC50 (ML-2): 10.4 µM
IC50 (Kasumi-3): > 10 µM
IC50 (OCI-AML-3): > 10 µM
IC50 (SKM-1): > 10 µM
IC50 (SIG-M5): 4.73 µM
IC50 (MONO-MAC-6): > 10 µM
IC50 (AP-1060): 6.77 µM
IC50 (GF-D8): > 10 µM
IC50 (MOLM-16): > 10 µM
IC50 (MOLM-13): 4.04 µM
IC50 (OCI-AML-5): > 10 µM
IC50 (OCI-M2): > 10 µM
IC50 (MUTZ-2): 0.951 µM
IC50 (KG-1): > 10 µM
IC50 (HL60): > 10 µM
IC50 (Kasumi-1): > 10 µM
IC50 (AML-193): > 10 µM
IC50 (ME-1): > 10 µM
IC50 (OCI-AML-2): 7.22 µM

Nc1ncn([C@@H]2O[C@H](CO)[C@@H](O)[C@H]2O)c(=O)n1 [Azacytidine, 5-azacytidine]
p53 expression after treatment [1]: Does Not Induce p53 Expression

CC(/C=C/C(=O)NO)=C\[C@@H](C)C(=O)c1ccc(N(C)C)cc1 [Trichostatin A]
p53 expression after treatment [1]: Does Not Induce p53 Expression

CC(C)(C)C[C@H]1N[C@@H](C(=O)NCCN2CCOCC2)[C@H](c2cccc(Cl)c2F)[C@@]12C(=O)Nc1cc(Cl)ccc12 [MI-63]
IC50 (ML-2): 7.47 µM
IC50 (Kasumi-3): > 10 µM
IC50 (OCI-AML-3): > 10 µM
IC50 (SKM-1): > 10 µM
IC50 (SIG-M5): 3.8 µM
IC50 (MONO-MAC-6): > 10 µM
IC50 (AP-1060): 4.03 µM
IC50 (GF-D8): > 10 µM
IC50 (MOLM-16): > 10 µM
IC50 (MOLM-13): 2.85 µM
IC50 (OCI-AML-5): > 10 µM
IC50 (OCI-M2): > 10 µM
IC50 (MUTZ-2): 1.17 µM
IC50 (KG-1): > 10 µM
IC50 (HL60): > 10 µM
IC50 (Kasumi-1): > 10 µM
IC50 (AML-193): > 10 µM
IC50 (ME-1): > 10 µM
IC50 (OCI-AML-2): 4.74 µM

CC(C)(C)C[C@H]1N[C@@H](C(=O)NCC[C@H](O)CO)[C@H](c2cccc(Cl)c2)[C@@]12C(=O)Nc1cc(Cl)c(F)cc12.Cl [MI-219]
IC50 (ML-2): 7.04 µM
IC50 (Kasumi-3): > 20 µM
IC50 (OCI-AML-3): 18.2 µM
IC50 (SKM-1): > 20 µM
IC50 (SIG-M5): 3.44 µM
IC50 (MONO-MAC-6): > 20 µM
IC50 (AP-1060): 4.22 µM
IC50 (GF-D8): > 20 µM
IC50 (MOLM-16): > 20 µM
IC50 (MOLM-13): 2.66 µM
IC50 (OCI-AML-5): 13.8 µM
IC50 (OCI-M2): > 20 µM
IC50 (MUTZ-2): 1.28 µM
IC50 (KG-1): > 20 µM
IC50 (HL60): > 20 µM
IC50 (Kasumi-1): > 20 µM
IC50 (AML-193): > 20 µM
IC50 (ME-1): > 20 µM
IC50 (OCI-AML-2): 5.25 µM
p53 immunoblot (MI-219 10 μM) (p53; AP-1060): Inducible
p53 immunoblot (MI-219 10 μM) (p53; GF-D8): non-inducible
p53 immunoblot (MI-219 10 μM) (p53; Kasumi-1): non-inducible
p53 immunoblot (MI-219 10 μM) (p53; Kasumi-3): non-inducible
p53 immunoblot (MI-219 10 μM) (p53; ML-2): Inducible
p53 immunoblot (MI-219 10 μM) (p53; MOLM-13): Inducible
p53 immunoblot (MI-219 10 μM) (p53; MOLM-16): non-inducible
p53 immunoblot (MI-219 10 μM) (p53; MONO-MAC-6): non-inducible
p53 immunoblot (MI-219 10 μM) (p53; MUTZ-2): Inducible
p53 immunoblot (MI-219 10 μM) (p53; OCI-AML-2): Inducible
p53 immunoblot (MI-219 10 μM) (p53; OCI-AML-3): Inducible
p53 immunoblot (MI-219 10 μM) (p53; OCI-AML-5): Inducible
p53 immunoblot (MI-219 10 μM) (p53; OCI-M2): non-inducible
p53 immunoblot (MI-219 10 μM) (p53; SIG-M5): Inducible
p53 immunoblot (MI-219 10 μM) (p53; SKM-1): non-inducible
fraction of AML cases with wild type p53 with IC50>10 μM (AML blasts; 21/97 cases): 22%
fraction of AML cases with wild type p53 exon 5-9 that were very sensitive (IC50<2 μM) (AML blasts; 32/97 cases): 33%
fraction of AML cases with wild type p53 with IC50>5 μM (AML blasts; 32/97 cases): 33%
fraction of AML cases with wild type p53 exon 5-9 that were sensitive (IC50>2 μM to <5 μM) (AML blasts; 33/97 cases): 34%
fraction of AML samples with FLT3-ITD with IC50 <2 μM (AML blasts; FLT3-ITD, N=19): 58%
fraction of AML samples with FLT3-ITD with IC50 <5 μM (AML blasts; FLT3-ITD, N=19): 84%
IC50 (AML blasts; all AML with wild type p53 exon 5-9, read-out: threshold IC50 value at the 25th percentile): 1.78 µM
IC50 (AML blasts; all AML with wild type p53 exon 5-9, read-out: threshold IC50 value at the 50th percentile): 3.2 µM
fraction of AML cases with unmutated p53 with primary resistance (AML blasts; [2]): ~30%
sensitivity of AML cases with mutated p53 (AML blasts; [2]): resistant
IC50 (AML blasts; previously untreated AML cases, exclusive of p53 exon 5-9 mutations, read-out: mean IC50): 6.6 µM
IC50 (AML blasts; primary AML, exclusive of cases with p53 exon 5-9 mutations, 40 hours, read-out: mean IC50): 6.1 µM
IC50 (AML blasts; relapsed AML cases, exclusive of p53 exon 5-9 mutations, read-out: mean IC50): 4.4 µM
IC50 (AML blasts; secondary AML, exclusive of cases with p53 exon 5-9 mutations, 40 hours, read-out: mean IC50): 7.9 µM
IC50 (AML blasts; tAML, exclusive of cases with p53 exon 5-9 mutations, 40 hours, read-out: mean IC50): 4.8 µM

— patent US20110251252A1, “BIOMARKERS FOR MDM2 INHIBITORS FOR USE IN TREATING DISEASE” (THE REGENTS OF THE UNIVERSITY OF MICHIGAN, priority 2010, published 2011)
